Laboratory results from ChEMBL document CHEMBL1131211, “Cyclopropane-derived peptidomimetics. Design, synthesis, evaluation, and structure of novel HIV-1 protease inhibitors” (J Med Chem, 1998).

Target: Human immunodeficiency virus type 1 protease (Human immunodeficiency virus 1, UniProt Q72874)
Experiment: Inhibitory activity was measured against wild-type HIV-1 protease

Row | SMILES | Ki [nM]
1 | CN(Cc1ccccn1)C(=O)[C@H]1[C@H](C(=O)N[C@@H](Cc2ccccc2)[C@@H](O)[C@H](O)[C@H](Cc2ccccc2)NC(=O)[C@H]2[C@H](C(=O)N(C)Cc3ccccn3)C2(C)C)C1(C)C | 80
2 | CC1(C)[C@@H](C(=O)NCc2ccccc2)[C@@H]1C(=O)N[C@@H](Cc1ccccc1)[C@@H](O)[C@H](O)[C@H](Cc1ccccc1)NC(=O)[C@H]1[C@H](C(=O)NCc2ccccc2)C1(C)C | 0.31
3 | CC(C)[C@H](NC(=O)N(C)Cc1ccccn1)C(=O)N[C@@H](Cc1ccccc1)[C@@H](O)[C@H](O)[C@H](Cc1ccccc1)NC(=O)[C@@H](NC(=O)N(C)Cc1ccccn1)C(C)C | 0.11
4 | C[C@H]1[C@@H](C(=O)NCc2ccccc2)[C@@H]1C(=O)N[C@@H](Cc1ccccc1)[C@@H](O)[C@H](O)[C@H](Cc1ccccc1)NC(=O)[C@@H]1[C@@H](C)[C@H]1C(=O)NCc1ccccc1 | 0.16
5 | C[C@@H]1[C@@H](C(=O)NCc2ccccc2)[C@@H]1C(=O)N[C@@H](Cc1ccccc1)[C@@H](O)[C@H](O)[C@H](Cc1ccccc1)NC(=O)[C@@H]1[C@H](C)[C@H]1C(=O)NCc1ccccc1 | 0.47
